According to patent publication US9422240B2, “Partially saturated nitrogen-containing heterocyclic compound” (TAISHO PHARMACEUTICAL CO., LTD, priority 2012, dated 2016):

Columns and labels:
human PHD2 [1] = molecular target: T1, human PHD2 (Homo sapiens (Human), UniProt Q9GZT9); experiment: Test 2: human PHD2 inhibitory activity, fluorescence polarization assay of HIF-1α peptide proline hydroxylation; assay type: biochemical; details: test compound's concentration 1 μM; Test 2, fluorescence polarization assay; read-out: Percent inhibition (% at 1 μM)
T1 sequence (Q9GZT9 whole entry): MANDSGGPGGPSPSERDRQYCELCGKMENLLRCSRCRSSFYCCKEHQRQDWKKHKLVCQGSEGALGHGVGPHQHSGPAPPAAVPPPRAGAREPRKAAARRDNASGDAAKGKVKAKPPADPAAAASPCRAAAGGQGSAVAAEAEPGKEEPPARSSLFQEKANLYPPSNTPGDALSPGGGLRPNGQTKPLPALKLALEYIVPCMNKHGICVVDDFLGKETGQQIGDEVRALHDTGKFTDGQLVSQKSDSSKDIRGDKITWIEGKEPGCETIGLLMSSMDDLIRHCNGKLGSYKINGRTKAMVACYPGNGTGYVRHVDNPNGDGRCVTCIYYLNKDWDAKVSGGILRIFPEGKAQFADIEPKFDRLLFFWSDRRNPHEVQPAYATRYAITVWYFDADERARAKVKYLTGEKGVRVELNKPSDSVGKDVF
Procedure, shortened: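 A 19-mer HIF-1α peptide served as substrate, with the reaction started by 40 ng/well human PHD2 (cell lysate of NM_022051-transfected cells) and run 20 min at 30° C. before EDTA stop. Hydroxylated product bound anti-HIF-OH antibody, read by fluorescence polarization versus no-compound control.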

human PHD2 [2] = molecular target: T1, human PHD2; experiment: Test 1: human PHD2 inhibitory activity, [14C]-2-oxoglutarate to [14C]-succinic acid radiometric assay with HIF-1α peptide; assay type: biochemical; details: test compound's concentration 1 μM; Test 1, [14C]-2-oxoglutarate radiometric assay; read-out: Percent inhibition (% at 1 μM)
Procedure: (1) Expression and Preparation of Human PHD2
Human PHD2 was expressed in insect cells (HighFive cells). A registered sequence of human PHD2 (NM_022051) was introduced into the pFastBacl vector (Invitrogen), and the sequence was verified. The vector was introduced into Sf9 insect cells (Invitrogen) to acquire human PHD2 baculovirus. HighFive insect cells (Invitrogen) were infected with this recombinant virus and cultured at 27° C. for 72 hours; thereafter, a cell lysis solution containing various protease inhibitors was added and the cells were disrupted to form a suspension. The suspension of disrupted cells was centrifuged at 4° C. and 100,000×g for 30 minutes and the supernatant was recovered as a cell lysate.
(2) Measurement of Human PHD2 Inhibitory Activity
The activity of human PHD2 enzyme was measured with a substrate which is a 19-residue partial peptide based on the sequence of HIF-1α. Specifically, the conversion of 2-oxoglutarate to succinic acid which would occur simultaneously with the hydroxylation of a proline residue in the peptide with the PHD2 enzyme was utilized. To be more specific, [^14C]-2-oxogiutarate was added to the reaction system to initiate an enzymatic reaction and the [^14C]-2-oxoglutarate remaining after the reaction was bound to 2,4-dinitrophenylhydrazine (DNPH), with the resulting precipitate being removed by passage through a filter. Subsequently, radiation counting was conducted on the resulting [^14C]-succinic acid.
A test compound, HIF-1αpeptide and [^14C]-2-oxoglutarate were preliminarily added onto 96-well plates and reaction was initiated by adding a human PHD2 enzyme solution (4 μg/well). After 15-min incubation at 37° C., a DNPH-containing quench solution was added and the mixture was allowed to stand at room temperature for 30 minutes. Thereafter, an excess of non-radiolabelled 2-oxoglutarate was added and the mixture was allowed to stand at room temperature for 60 minutes. The resulting precipitate was removed by passage through a filter and the radiation count on the [^14C]-succinic acid was quantified (with MicroBeta). Radiation counting was conducted for each well and the human PHD2 inhibitory activity of each test compound was calculated on the basis of the values for the substrate-free group and the test compound-free group.

inhibition at 1 µM (human PHD2 [1]) [%] | inhibition at 1 µM (human PHD2 [2]) [%] | Compound
94 | 85 | O=C(O)CNC(=O)C1=C(O)C2(CCCCC2)CN(Cc2cnc(-c3ccccc3)s2)C1=O [Ex. 1-91]
92 | 84 | CC1CC(O)=C(C(=O)NCC(=O)O)C(=O)N1Cc1cnc(-c2ccccc2)s1 (centres unmarked) [Ex. 1-94]
86 | 82 | CC1(C)CC(O)=C(C(=O)NCC(=O)O)C(=O)N1Cc1cnc(-c2ccccc2)s1 [Ex. 1-96]
91 | 89 | O=C(O)CNC(=O)C1=C(O)C2(CCOCC2)CN(Cc2cnc(-c3ccccc3)s2)C1=O [Ex. 1-97]
92 | 71 | O=C(O)CNC(=O)C1=C(O)CC2(CCOCC2)N(CC2CCC(c3ccccc3)CC2)C1=O (centres unmarked) [Ex. 1-99]
83 | 78 | O=C(O)CNC(=O)C1=C(O)CC2(CCOCC2)N(Cc2ccc(-c3ccccn3)cc2)C1=O [Ex. 1-105]
87 | 60 | CC1CN(Cc2ccc(-c3ccc(C(F)(F)F)cc3)cc2)C(=O)C(C(=O)NCC(=O)O)=C1O (centres unmarked) [Ex. 1-108]
90 | 68 | O=C(O)CNC(=O)C1=C(O)CC2(CCCCC2)N(Cc2cnc(-c3ccccc3)s2)C1=O [Ex. 1-112]
83 | 36 | O=C(O)CNC(=O)C1=C(O)C2(CCC2)CN(CC2CCC(c3ccccc3)CC2)C1=O (centres unmarked) [Ex. 1-114]
83 | 49 | CC1(C)CC(O)=C(C(=O)NCC(=O)O)C(=O)N1CC1CCC(c2ccccc2)CC1 (centres unmarked) [Ex. 1-115]
76 | 65 | O=C(O)CNC(=O)C1=C(O)CC2(CCC2)N(Cc2ccc(C(F)(F)F)cc2)C1=O [Ex. 1-122]
98 | 97 | O=C(O)CNC(=O)C1=C(O)CCN(Cc2ccc(-c3ccc(F)cc3)cc2F)C1=O [Ex. 1-126]
95 | 92 | O=C(O)CNC(=O)C1=C(O)CCN(Cc2ccc(-c3ccccc3)cc2F)C1=O [Ex. 1-127]
84 | 88 | O=C(O)CNC(=O)C1=C(O)CCN(Cc2ccc(C(F)(F)F)c(Cl)c2)C1=O [Ex. 1-128]
96 | 93 | O=C(O)CNC(=O)C1=C(O)CC2(CCC2)N(Cc2cnc(-c3ccccc3)s2)C1=O [Ex. 1-131]
94 | 103 | O=C(O)CNC(=O)C1=C(O)CC2(COC2)N(CC2CCC(c3ccccc3)CC2)C1=O (centres unmarked) [Ex. 1-132]
97 | 104 | O=C(O)CNC(=O)C1=C(O)CC2(COC2)N(Cc2ccc(-c3ccc(C(F)(F)F)cc3)cc2)C1=O [Ex. 1-133]
85 | 86 | O=C(O)CNC(=O)C1=C(O)CCN(Cc2ccc(C(F)(F)F)c(F)c2F)C1=O [Ex. 1-134]
78 | 78 | O=C(O)CNC(=O)C1=C(O)CCN(Cc2c(F)cc(C(F)(F)F)cc2F)C1=O [Ex. 1-135]
88 | 91 | O=C(O)CNC(=O)C1=C(O)CCN(Cc2ccc(OC(F)(F)C(F)F)cc2)C1=O [Ex. 1-136]
52 | 54 | O=C(O)CNC(=O)C1=C(O)CC2(CCCCC2)N(Cc2ccc(C(F)(F)F)cn2)C1=O [Ex. 1-142]

Further lines, the compound ahead of its results:

Compound | inhibition at 1 µM (human PHD2 [1]) [%] | inhibition at 1 µM (human PHD2 [2]) [%]
Cc1ccc(CN2CC(C)C(O)=C(C(=O)NCC(=O)O)C2=O)cc1 (centres unmarked) [Ex. 1-92] | 66 | 69
CC1CN(Cc2ccc(-c3ccccn3)cc2)C(=O)C(C(=O)NCC(=O)O)=C1O (centres unmarked) [Ex. 1-93] | 81 | 80
O=C(O)CNC(=O)C1=C(O)C2(CCC2)CN(Cc2cnc(-c3ccccc3)s2)C1=O [Ex. 1-95] | 91 | 85
O=C(O)CNC(=O)C1=C(O)CC2(CCOCC2)N(Cc2cnc(-c3ccccc3)s2)C1=O [Ex. 1-98] | 88 | 88
CC1CC(O)=C(C(=O)NCC(=O)O)C(=O)N1Cc1ccc(-c2ccc(C(F)(F)F)cc2)cc1 (centres unmarked) [Ex. 1-100] | 84 | 64
O=C(O)CNC(=O)C1=C(O)C2(CCCCC2)CN(Cc2ccc(-c3ccccn3)cc2)C1=O [Ex. 1-101] | 86 | 60
O=C(O)CNC(=O)C1=C(O)C2(CCC2)CN(Cc2ccc(-c3ccccn3)cc2)C1=O [Ex. 1-102] | 83 | 67
CC1CN(Cc2ccc(C(F)(F)F)cc2)C(=O)C(C(=O)NCC(=O)O)=C1O (centres unmarked) [Ex. 1-103] | 82 | 76
CC1CN(Cc2cnc(-c3ccccc3)s2)C(=O)C(C(=O)NCC(=O)O)=C1O (centres unmarked) [Ex. 1-104] | 94 | 87
O=C(O)CNC(=O)C1=C(O)CC2(CCOCC2)N(Cc2ccc(C(F)(F)F)cc2)C1=O [Ex. 1-106] | 72 | 66
CC1CN(CC2CCC(c3ccccc3)CC2)C(=O)C(C(=O)NCC(=O)O)=C1O (centres unmarked) [Ex. 1-107] | 90 | 67
CC1(C)CC(O)=C(C(=O)NCC(=O)O)C(=O)N1Cc1ccc(-c2ccccn2)cc1 [Ex. 1-109] | 77 | 70
O=C(O)CNC(=O)C1=C(O)C2(CCOCC2)CN(Cc2ccc(-c3ccccn3)cc2)C1=O [Ex. 1-110] | 84 | 82
O=C(O)CNC(=O)C1=C(O)CC2(CCCCC2)N(Cc2ccc(-c3ccccn3)cc2)C1=O [Ex. 1-111] | 80 | 68
O=C(O)CNC(=O)C1=C(O)CCN(Cc2ccc(C(F)(F)F)c(F)c2)C1=O [Ex. 1-113] | 84 | 79
O=C(O)CNC(=O)C1=C(O)C2(CCOCC2)CN(CC2CCC(c3ccccc3)CC2)C1=O (centres unmarked) [Ex. 1-117] | 92 | 83

Compound | inhibition at 1 µM (human PHD2 [1]) [%] | inhibition at 1 µM (human PHD2 [2]) [%]
CC1(C)CC(O)=C(C(=O)NCC(=O)O)C(=O)N1Cc1ccc(-c2ccc(C(F)(F)F)cc2)cc1 [Ex. 1-118] | 87 | 77
O=C(O)CNC(=O)C1=C(O)C2(CCOCC2)CN(Cc2ccc(-c3ccc(C(F)(F)F)cc3)cc2)C1=O [Ex. 1-119] | 84 | 85
O=C(O)CNC(=O)C1=C(O)CCN(Cc2ccc(C(F)(F)F)c(C(F)(F)F)c2)C1=O [Ex. 1-120] | 82 | 69
Cc1ccc(CN2C(=O)C(C(=O)NCC(=O)O)=C(O)CC23CCC3)cc1 [Ex. 1-121] | 71 | 66
O=C(O)CNC(=O)C1=C(O)CC2(COC2)N(Cc2cnc(-c3ccccc3)s2)C1=O [Ex. 1-123] | 93 | 90
O=C(O)CNC(=O)C1=C(O)CC2(COC2)N(Cc2ccc(C(F)(F)F)cc2)C1=O [Ex. 1-124] | 79 | 72
O=C(O)CNC(=O)C1=C(O)CCN(Cc2ccc(-c3ccccc3)c(F)c2)C1=O [Ex. 1-125] | 97 | 98
Cc1ccc(CN2CCC(O)=C(C(=O)NCC(=O)O)C2=O)cc1C(F)(F)F [Ex. 1-129] | 80 | 71
O=C(O)CNC(=O)C1=C(O)CC2(CCC2)N(Cc2ccc(-c3ccccn3)cc2)C1=O [Ex. 1-130] | 90 | 89
O=C(O)CNC(=O)C1=C(O)CC2(CCC2)N(CC2CCC(c3ccccc3)CC2)C1=O (centres unmarked) [Ex. 1-137] | 92 | 78
CC(C)(C)c1ccc(-c2ccc(CN3C(=O)C(C(=O)NCC(=O)O)=C(O)CC34COC4)cc2)cc1 [Ex. 1-138] | 97 | 83
O=C(O)CNC(=O)C1=C(O)CCN(Cc2ccc(F)cc2)C1=O [Ex. 1-139] | 78 | 72
O=C(O)CNC(=O)C1=C(O)CCN(Cc2ccc(C(F)(F)C(F)(F)F)cc2)C1=O [Ex. 1-140] | 85 | 79
O=C(O)CNC(=O)C1=C(O)CC2(CCCCC2)N(Cc2ccc(C(F)(F)F)nc2)C1=O [Ex. 1-141] | 62 | 64
O=C(O)CNC(=O)C1=C(O)C2CCCCC2N(Cc2ccc(C(F)(F)F)cc2)C1=O (centres unmarked) [Ex. 1-143] | 65 | 41
